Assay results from paper PMC9963409, “Structural Insight into Catalysis by the Flavin-Dependent NADH Oxidase (Pden_5119) of Paracoccus denitrificans” (International Journal of Molecular Sciences, 2023).
Each block holds one molecule with its values, some of them ahead of it.

Assays:
[1] = biological target: T1, Pden_5119 (Paracoccus denitrificans, UniProt A1BCD5, H117A); assay: intrinsic protein fluorescence quenching titration; type: binding; conditions: read-out: Kd^FMN
T1 construct: C-terminal His6 tag kept, expressed in E. coli BL21(DE3)pLysS; subunit 20596 g/mol; dimer in solution; contains no cysteine
T1 sequence (A1BCD5 entry or part of it H117A): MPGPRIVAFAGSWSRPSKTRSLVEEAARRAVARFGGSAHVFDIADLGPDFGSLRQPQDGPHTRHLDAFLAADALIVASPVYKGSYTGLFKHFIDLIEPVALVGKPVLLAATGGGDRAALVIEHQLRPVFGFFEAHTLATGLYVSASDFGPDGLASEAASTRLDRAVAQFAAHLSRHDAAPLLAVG
Source text: (§1) intrinsic protein fluorescence quenching titration on Pden_5119

[2] = biological target: T2, Pden_5119 (Paracoccus denitrificans, UniProt A1BCD5, K82A); assay: intrinsic protein fluorescence quenching titration; type: binding; conditions: read-out: Kd^FMN
T2 construct: C-terminal His6 tag kept, expressed in E. coli BL21(DE3)pLysS; subunit 20596 g/mol; dimer in solution; contains no cysteine
T2 sequence (A1BCD5 entry or part of it K82A): as the sequence (A1BCD5 entry or part of it H117A) above, with K82A, A117H counted along it
Source text: as §1

[3] = biological target: T3, Pden_5119 (Paracoccus denitrificans, UniProt A1BCD5); assay: intrinsic protein fluorescence quenching titration; type: binding; conditions: read-out: Kd^FMN
T3 construct: C-terminal His6 tag kept, expressed in E. coli BL21(DE3)pLysS; subunit 20596 g/mol; dimer in solution; contains no cysteine
Source text: as §1

[4] = biological target: T4, Pden_5119 (Paracoccus denitrificans, UniProt A1BCD5, R116K); assay: intrinsic protein fluorescence quenching titration; type: binding; conditions: read-out: Kd^FMN
T4 construct: C-terminal His6 tag kept, expressed in E. coli BL21(DE3)pLysS; subunit 20596 g/mol; dimer in solution; contains no cysteine
T4 sequence (A1BCD5 entry or part of it R116K): as the sequence (A1BCD5 entry or part of it H117A) above, with R116K, A117H counted along it
Source text: as §1

[5] = biological target: T5, Pden_5119 (Paracoccus denitrificans, UniProt A1BCD5, R116A); assay: intrinsic protein fluorescence quenching titration; type: binding; conditions: read-out: Kd^FMN
T5 construct: C-terminal His6 tag kept, expressed in E. coli BL21(DE3)pLysS; subunit 20596 g/mol; dimer in solution; contains no cysteine
T5 sequence (A1BCD5 entry or part of it R116A): as the sequence (A1BCD5 entry or part of it H117A) above, with R116A, A117H counted along it
Source text: as §1

[6] = biological target: T1, Pden_5119; assay: stopped-flow reduction of enzyme-bound FMN at […] nm, hyperbolic fit of kobs; type: biochemical; conditions: anaerobic reductive half-reaction of enzyme-FMN complex; rapid-equilibrium binding step; 0.1 M sodium phosphate pH 7.3; 10 °C; read-out: KNADH
[7] = biological target: T2, Pden_5119; assay: as above; type: biochemical; conditions: anaerobic reductive half-reaction of enzyme-FMN complex; rapid-equilibrium binding step; 0.1 M sodium phosphate pH 7.3; 10 °C; read-out: KNADH
[8] = biological target: T3, Pden_5119; assay: as above; type: biochemical; conditions: anaerobic reductive half-reaction of enzyme-FMN complex; rapid-equilibrium binding step; 0.1 M sodium phosphate pH 7.3; 10 °C; read-out: KNADH
[9] = biological target: T4, Pden_5119; assay: as above; type: biochemical; conditions: anaerobic reductive half-reaction of enzyme-FMN complex; rapid-equilibrium binding step; 0.1 M sodium phosphate pH 7.3; 10 °C; read-out: KNADH
[10] = biological target: T5, Pden_5119; assay: as above; type: biochemical; conditions: anaerobic reductive half-reaction of enzyme-FMN complex; rapid-equilibrium binding step; 0.1 M sodium phosphate pH 7.3; 10 °C; read-out: KNADH
[11] = biological target: the molecule itself; assay: SAXS; protein at 1.5 mg/mL (73 μM in monomer); ab initio envelope (DAMMIN) and CRYSOL fit of a dimeric homology model to the scattering curve

Kd [1]: 9.1 ± 0.6 µM | Kd [2]: 6.8 ± 3.4 µM | Kd [3]: 3.8 ± 0.4 µM | Kd [4]: 0.6 ± 0.1 µM | Kd [5]: 3.5 ± 1.5 µM
Molecule: Cc1cc2nc3c(=O)[nH]c(=O)nc-3n(C[C@H](O)[C@H](O)[C@H](O)COP(=O)(O)O)c2cc1C [FMN]

Kd [6]: 40 ± 7 µM | Kd [7]: 53 ± 18 µM | Kd [8]: 19 ± 1 µM | Kd [9]: 20 ± 4 µM | Kd [10]: 39 ± 17 µM
Molecule: NC(=O)C1=CN([C@@H]2O[C@H](COP(=O)(O)OP(=O)(O)OC[C@H]3O[C@@H](n4cnc5c(N)ncnc54)[C@H](O)[C@@H]3O)[C@@H](O)[C@H]2O)C=CC1 [NADH]

B1: Pden_5119 protein (flavin-dependent NADH oxidase of Paracoccus denitrificans) (enzyme)
chain: MPGPRIVAFAGSWSRPSKTRSLVEEAARRAVARFGGSAHVFDIADLGPDFGSLRQPQDGPHTRHLDAFLAADALIVASPVYKGSYTGLFKHFIDLIEPVALVGKPVLLAATGGGDRHALVIEHQLRPVFGFFEAHTLATGLYVSASDFGPDGLASEAASTRLDRAVAQFAAHLSRHDAAPLLAVG
notes: Pden_5119, product of the gene pden_5119 of Paracoccus denitrificans; subunit molar mass 20 596 g/mol; 15 histidines per monomer including the tag; also called wild-type; not shown: His6, C-terminal, kept
stoichiometry N [11]: 2
